# Assay results as given in patent US9125915B2, “Antitumor agent” (Mitsubishi Tanabe Pharma Corporation, priority 2007, dated 2015).
# Like-named read-outs stand apart in the source and are kept apart here.
# Key:
# HL-60 = experiment: Growth suppressive activity test against cancer cells (WST-8), HL-60; format: cell-based; conditions: Homo sapiens, 72 h, HL-60, promyelocytic leukemia, 3 days culture, read-out: cell proliferation suppressive activity GI50
# Experimental: (§1) Using RPMI 1640 medium (manufactured by SIGMA) supplemented with 10% fetal bovine serum, human promyelocytic leukemia-derived cell line HL-60, human acute lymphoblastic leukemia-derived cell line MOLT4, human Burkitt's lymphoma-derived cell line Daudi, and human multiple myeloma-derived cell line RPMI-8226 were respectively cultured at 37° C., 5% CO2. In addition, using ISKOV medium (manufactured by SIGMA) supplemented with 10% fetal bovine serum, human chronic myeloid leukemia-derived cell line MV4-11 was cultured at 37° C., 5% CO2. Moreover, using DMEM/F-12 medium (manufactured by SIGMA) supplemented with 10% fetal bovine serum, human lung cancer cell-derived cell line EBC-1, human hepatocellular cancer-derived cell line Kim-1, human colorectal cancer-derived cell line HCT-116, human prostate cancer-derived cell line PC-3, human ovarian cancer-derived cell line A2780, and human osteosarcoma-derived cell line Saos2 were respectively cultured at 37° C., 5% CO2. […] The absorbance at 650 nm was subtracted from the absorbance at 450 nm. The growth suppressive activity was shown by a decrease rate of the absorbance of the compound addition group to that of the compound non-addition group, and GI50 value was determined from a dose-reaction curve plotting a decrease rate of the absorbance obtained by changing the compound concentration and the compound concentrations.
# MV4-11 = experiment: Growth suppressive activity test against cancer cells (WST-8), MV4-11; format: cell-based, human
# Experimental: Using RPMI 1640 medium (manufactured by SIGMA) supplemented with 10% fetal bovine serum, human promyelocytic leukemia-derived cell line HL-60, human acute lymphoblastic leukemia-derived cell line MOLT4, human Burkitt's lymphoma-derived cell line Daudi, and human multiple myeloma-derived cell line RPMI-8226 were respectively cultured at 37° C., 5% CO2. In addition, using ISKOV medium (manufactured by SIGMA) supplemented with 10% fetal bovine serum, human chronic myeloid leukemia-derived cell line MV4-11 was cultured at 37° C., 5% CO2. Moreover, using DMEM/F-12 medium (manufactured by SIGMA) supplemented with 10% fetal bovine serum, human lung cancer cell-derived cell line EBC-1, human hepatocellular cancer-derived cell line Kim-1, human colorectal cancer-derived cell line HCT-116, human prostate cancer-derived cell line PC-3, human ovarian cancer-derived cell line A2780, and human osteosarcoma-derived cell line Saos2 were respectively cultured at 37° C., 5% CO2. These cells were plated on a 96 well plate, and cultured for 1 day. Thereto was added a compound diluted with the medium to a final concentration of 0.0003-10 μm (final DMSO concentration, 0.4%). After culture for 3 more days, WST-8 (0.16 mg/mL) was added to the culture medium and the cells were cultured for 2 hr. The absorbance at 650 nm was subtracted from the absorbance at 450 nm. The growth suppressive activity was shown by a decrease rate of the absorbance of the compound addition group to that of the compound non-addition group, and GI50 value was determined from a dose-reaction curve plotting a decrease rate of the absorbance obtained by changing the compound concentration and the compound concentrations.
# Daudi = experiment: Growth suppressive activity test against cancer cells (WST-8), Daudi; format: cell-based; conditions: Homo sapiens, 72 h, Burkitt's lymphoma, 3 days culture, read-out: cell proliferation suppressive activity GI50
# Experimental: as §1
# RPMI-8226 = experiment: Growth suppressive activity test against cancer cells (WST-8), RPMI-8226; format: cell-based; conditions: Homo sapiens, 72 h, RPMI-8226, multiple myeloma, 3 days culture, read-out: cell proliferation suppressive activity GI50
# Experimental: as §1
# Kim-1 = experiment: Growth suppressive activity test against cancer cells (WST-8), Kim-1; format: cell-based; conditions: Homo sapiens, 72 h, Kim-1, hepatocellular cancer, 3 days culture, read-out: cell proliferation suppressive activity GI50
# Experimental: as §1
# MOLT-4 = experiment: Growth suppressive activity test against cancer cells (WST-8), MOLT-4; format: cell-based; conditions: Homo sapiens, 72 h, MOLT-4, acute lymphoblastic leukemia, 3 days culture, read-out: cell proliferation suppressive activity GI50
# Experimental: as §1
# A-2780 = experiment: Growth suppressive activity test against cancer cells (WST-8), A-2780; format: cell-based; conditions: Homo sapiens, A2780, 72 h, A-2780, ovarian cancer, 3 days culture, read-out: cell proliferation suppressive activity GI50
# Experimental: as §1
# PC-3 = experiment: Growth suppressive activity test against cancer cells (WST-8), PC-3; format: cell-based; conditions: Homo sapiens, 72 h, PC-3, prostate cancer, 3 days culture, read-out: cell proliferation suppressive activity GI50
# Experimental: as §1
# EBC-1 = experiment: Growth suppressive activity test against cancer cells (WST-8), EBC-1; format: cell-based; conditions: Homo sapiens, 72 h, EBC-1, non-small cell lung cancer, 3 days culture, read-out: cell proliferation suppressive activity GI50
# Experimental: as §1
# Saos2 = experiment: Growth suppressive activity test against cancer cells (WST-8), Saos2; format: cell-based; conditions: Homo sapiens, SAOS-2, 72 h, Saos2, osteosarcoma, 3 days culture, read-out: cell proliferation suppressive activity GI50
# Experimental: as §1
# HCT-116 = experiment: Growth suppressive activity test against cancer cells (WST-8), HCT-116; format: cell-based; conditions: Homo sapiens, 72 h, HCT-116, colorectal cancer, 3 days culture, read-out: cell proliferation suppressive activity GI50
# Experimental: as §1
# BRD4 = BRD4 (Homo sapiens (Human), UniProt O60885); experiment: Binding inhibitory test of acetylated histone H4 and BRD4 (TR-FRET); conditions: CHO cell lysate with Flag-BRD4, biotin-labeled acetylated histone H4 peptide
# Experimental: An expression vector containing cDNA of BRD2, 3 and 4 added with Flag-tag was transfected to CHO cell, and a cell lysate was prepared 24 hr later. Binding of acetylated histone H4 and BRD was confirmed by a Time Resolved Fluorescence Resonance Energy Transfer (TR-FRET) method. To a 384-well white plate (manufactured by Coaster) were added 50 nmol/L biotin-labeled acetylated histone H4 peptide (manufactured by Upstate) and a serially diluted test compound.
# [1] = Homo sapiens, 72 h, MV4-11, chronic myeloid leukemia, 3 days culture, read-out: cell proliferation suppressive activity GI50
# [2] = Homo sapiens, 72 h, MV4-11, 3 days culture, read-out: growth suppressive activity on MV4-11 GI50
# [3] = MV4-11, 3 days culture, read-out: growth suppressive activity on MV4-11 GI50
SMILES,IC50 (BRD4) [nM],GI50 (MV4-11; [3]) [nM],also measured
"Cc1sc2c(c1C)C(c1ccc(Cl)cc1)=N[C@@H](CC(=O)Nc1ccc(O)cc1)c1nnc(C)n1-2 [Compound 1, (S)-2-[4-(4-chlorophenyl)-2,3,9-trimethyl-6H-thieno[3,2-f][1,2,4]triazolo[4,3-a][1,4]diazepin-6-yl]-N-(4-hydroxyphenyl)acetamide]",–,–,GI50 (HL-60): 149 nM; GI50 (MV4-11; [1]): 60.7 nM; GI50 (Daudi): 611 nM; GI50 (RPMI-8226): 130 nM; GI50 (Kim-1): 569 nM; GI50 (MOLT-4): 80 nM; GI50 (A-2780): 619 nM; GI50 (PC-3): 1030 nM; GI50 (EBC-1): 491 nM; GI50 (Saos2): 481 nM; GI50 (HCT-116): 563 nM
"COC(=O)C[C@@H]1N=C(c2ccc(-c3cccc(C#N)c3)cc2)c2c(sc(C)c2C)-n2c(C)nnc21 [Compound 2, methyl (S)-{4-(3′-cyanobiphenyl-4-yl)-2,3,9-trimethyl-6H-thieno[3,2-f][1,2,4]triazolo[4,3-a][1,4]diazepin-6-yl}acetate]",121,–,GI50 (HL-60): 7 nM; GI50 (MV4-11; [2]): 19 nM; GI50 (MV4-11; [1]): 19 nM; GI50 (Daudi): 67.4 nM; GI50 (RPMI-8226): 69.4 nM; GI50 (Kim-1): 104 nM; GI50 (MOLT-4): 106 nM; GI50 (A-2780): 130 nM; GI50 (PC-3): 199 nM; GI50 (EBC-1): 207 nM; GI50 (Saos2): 269 nM; GI50 (HCT-116): 356 nM
CCOC(=O)C[C@@H]1N=C(c2ccc(Nc3cccnc3)cc2)c2c(sc(C)c2C)-n2c(C)nnc21 [compound 3],54.9,20,–
COC(=O)C[C@@H]1N=C(c2ccc(Nc3c(F)cc(F)cc3F)cc2)c2c(sc(CO)c2C)-n2c(C)nnc21 [compound 4],77.2,95,–
COC(=O)C[C@@H]1N=C(c2ccc(Cl)cc2)c2c(sc(Cl)c2C)-n2c(C)nnc21 [compound 5],54.2,73,–
COC(=O)C[C@@H]1N=C(c2ccc(Cl)cc2)c2c(sc(C)c2C)-n2c(C)nnc21 [compound 6],18.2,26,–
COC(=O)C[C@@H]1N=C(c2ccc(-c3ccc(OC)cc3)cc2)c2c(sc(CO)c2C)-n2c(C)nnc21 [compound 7],113,55,–
"COC(=O)C[C@@H]1N=C(c2ccc(Nc3ccccc3)cc2)c2c(sc(C)c2C)-n2c(C)nnc21 [compound 8, methyl (S)-{2,3,9-trimethyl-4-(4-phenylaminophenyl)-6H-thieno[3,2-f][1,2,4]triazolo[4,3-a][1,4]diazepin-6-yl}acetate]",–,–,GI50 (MV4-11; [2]): 9 nM
COC(=O)C[C@@H]1N=C(c2ccc(NCc3ccccc3)cc2)c2c(sc(C)c2C)-n2c(C)nnc21 [compound 9],73.6,39,–
"COC(=O)C[C@@H]1N=C(c2ccc(NC(=O)CCc3ccccc3)cc2)c2c(sc(C)c2C)-n2c(C)nnc21 [compound 10, methyl (S)-{2,3,9-trimethyl-4-[4-(3-phenylpropionylamino)phenyl]-6H-thieno[3,2-f][1,2,4]triazolo[4,3-a][1,4]diazepin-6-yl}acetate]",47.1,–,GI50 (MV4-11; [2]): 7 nM
CCOC(=O)C[C@@H]1N=C(c2ccc(N(C)c3ccc(F)cc3)cc2)c2c(sc(C)c2C)-n2c(C)nnc21 [compound 11],225,95,–
Cc1sc2c(c1C)C(c1ccc(Cl)cc1)=NC(CC(=O)Nc1cccnc1)c1nnc(C)n1-2 (stereo not drawn) [compound 12],108,30,–
CNC(=O)CC1N=C(c2ccc(Cl)cc2)c2c(sc(C)c2C)-n2c(C)nnc21 (stereo not drawn) [compound 13],17.3,22,–
Cc1sc2c(c1C)C(c1ccc(Cl)cc1)=NC(CC(=O)NCCO)c1nnc(C)n1-2 (stereo not drawn) [compound 14],–,42,–
Cc1sc2c(c1C)C(c1ccc(Cl)cc1)=NC(CC(=O)Nc1ccc(N)cc1)c1nnc(C)n1-2 (stereo not drawn) [compound 15],120,34,–
COc1ccc(NC(=O)C[C@@H]2N=C(c3ccc(Cl)cc3)c3c(sc(C)c3C)-n3c(C)nnc32)cn1 [compound 16],116,28,–
CONC(=O)C[C@@H]1N=C(c2ccc(Cl)cc2)c2c(sc(C)c2C)-n2c(C)nnc21 [compound 17],12.8,14,–
COc1ncccc1NC(=O)C[C@@H]1N=C(c2ccc(Cl)cc2)c2c(sc(C)c2C)-n2c(C)nnc21 [compound 18],147,48,–
